# Assay results from patent publication US20260124158A1, “COMPOSITIONS AND METHODS TO REDUCE BIOLOGICAL AGE OF AN ADULT ANIMAL” (Société des Produits Nestlé S.A., priority 2022, published 2026).
# Tests used:
# [1] = tested on: muscle gastrocnemius of old mice; assay: Muscle biological age by DNA methylation, pan tissue clock, in old mice; assay type: in vivo, mouse
# From the text: (§1) All animal experiments comply with the International Guiding Principles for Biomedical Research Involving Animals developed by the Council for International Organizations of Medical Sciences and the following guidelines for animal welfare. 24 old mice aged 18 months and 12 young mice aged 6 months were kept in a temperature-and humidity-controlled environment with a 12:12-h light-dark cycle. Mice had access to nesting and enrichment materials and were provided with ad libitum access to water and food.
# (§2) Old mice were split in two groups and received either 20 mg/kg body weight of thymol or vehicle by gavage daily for 12 weeks, whereas young mice received the vehicle only (n=12). Animals found dead or euthanized at the humane endpoint for pain or physical distress, have been excluded from the analysis. At the end of the treatment, mice were euthanized with isoflurane after 2-hours fasting. Muscle gastrocnemius has been dissected samples and snap frozen in liquid nitrogen and stored at −80° C.
# (§3) DNA extraction was performed on 100 mg of muscle using QIAGEN DNeasy Blood and Tissue kit (Cat. No: 69506) and following manufacturer recommendations. DNA was quantified using the DropSense technology (from Unchained Labs). […]
# (§4) To calculate biological age, raw data have been analysed using algorithms (clocks) developed by the Clock Foundation. […] Data were plotted and analysed using GraphPad Prism 9. […]
# [2] = tested on: muscle gastrocnemius of old mice; assay: Muscle biological age by DNA methylation, intervention muscle clock, in old mice; assay type: in vivo, mouse; conditions: 20 mg/kg/day for 12 weeks
# From the text: as §1, §2, §3, §4
smiles,measurement,setting,value
Cc1ccc(C(C)C)c(O)c1 [thymol],reduction of muscle biological age measured with the pan tissue clock,"[1]; 20 mg/kg/day by gavage daily for 12 weeks, vs old vehicle",20.3%
same,effect on biological age in old mice,[1]; 20 mg/kg/day for 12 weeks,significantly reduced biological age in old mice
same,effects on biological age using the interventions muscle clock,[2],confirmed
